Results taken from US20240366555A1, “SELECTIVE MTORC2 INHIBITOR AND USES THEREOF” (ALIAD BIOPHARMA, priority 2021, published 2024).

Target: T1, mTORC2 located in late endosome of dendritic spines (Rattus norvegicus, UniProt P42346)
T1 construct: endogenous in cells; host or cells: primary cultured cerebral neurons from SD-rat E16 embryos, transduced by lentivirus only with mCherry-FRB-AKT2 and Rab7-FKBP
Experiment: LocaTOR2 assay-immunofluorescent staining in primary cultured cerebral neurons (mGluR-dependent mTORC2 activation)
Format: cell-based
Details: neurons pretreated with norathyriol; FIG. 11b
Excerpt: By combining Loca-TOR2 assay and immunofluorescence staining, changes in mTORC2 activity located in the late endosome during the induction process of long term depression (LTD) occurring in dendritic spines of primarily cultured cerebral neurons were investigated, and the inhibitory effect of norathyriol on these changes was investigated.
Specifically, mCherry-FRB-AKT2 and Rab7-FKBP were introduced using a lentiviral vector on the primarily cultured cerebral neuron on the DIV5 day, and AP21967 was treated on the DIV17 day to induce binding of FRB and FKBP, and thereby, mCherry-FRB-AKT2 was located in the late endosome. After that, DHPG, which is an mGluR agonist inducing long-term depression, was treated. […] In addition, by measuring Ser473 phosphorylation staining of mCherry-FRB-AKT2 overlapped with PSD-95 staining, which is a protein located in dendritic spines, by immunofluorescent staining, changes in mTORC2 activity located in the late endosome in the dendritic spines can be investigated. After staining using a phospho-Ser473 AKT antibody by immunofluorescent staining, the degree of AKT Ser473 phosphorylation was quantified by counting the number of each fluorescent puncta larger than 0.4 μm or more in size in the dendrites (green). In addition, the dendritic spines were observed by staining with PSD95 antibody (yellow), and the location of mCherry-FRB-AKT2 was investigated by observing mCherry fluorescence (cherry color).
SD-rat gestational age 16-day mice (Orient Bio) were purchased and the mice were anesthetized with CO2 and then embryos were taken out. Until the forebrain was isolated and the meninges were removed, it was performed by the same method as the hippocampal culture, and when the cerebrum was isolated, the dorsal cortex or ventral cortex was cut with a bended syringe needle, and it was collected in new HBSS. The tissue isolated and collected was transferred to a 15 ml tube with a Pasteur pipette, and then in order to remove the remaining meninges and blood vessels, and the like, 2 ml HBSS and 0.25% trypsin of 2 ml were added, and it was reacted in a 37° C. shaker for 10-15 minutes. The cells were settled and the supernatant was removed leaving 1-2 ml, and then trypsin was inactivated by adding DMEM comprising the equal amount of 20% FBS. After centrifugation at 700 rpm for 15 minutes, the supernatant was discarded all and the collected tissue was released, and then Neurobasal culture medium (+glutamate) of 2 ml was added, and titrated with a pipette, and the cells were isolated by changing to a pipette with a narrow end. […] The number of cells was measured with a hemocytometer, and then the cells were seeded in a coated culture dish. […]

Question: `O=c1c2cc(O)c(O)cc2oc2cc(O)cc(O)c12` [norathyriol, 1,3,6,7-tetrahydroxy-9H-xanthen-9-one] was tested. Which “AKT-Ser473 phosphorylation induced by DHPG” value did it give?
Answer: measured similarly to the control group level
